biological target: Beta-3 Adrenergic Receptor (Homo sapiens (Human), UniProt P13945); assay: Homogeneous Time-Resolved Fluorescence (HTRF) cAMP antagonist assay, IC50 determination; type: cell-based; settings: CHO-K1 cells stably expressing recombinant receptor, isoproterenol at EC90
Method: HTRF cAMP assays were performed according to manufacturer's instructions (Cisbio, cAMP Dynamic 2 Assay Kit; #62AM4PEJ). CHO-K1 cells stably expressing recombinant receptor were harvested and suspended in warm PBS to make a 300,000 cells/mL stock. This cell suspension was dispensed into 384 well assay plates (PerkinElmer ProxiPlate #6008280) at 5 μL per well (1500 cells/well) along with a cAMP standard curve.
Compounds were dissolved and serially diluted (5-fold) in DMSO to generate a 10-point dose response stock. The stock was then diluted 100-fold in assay buffer (PBS containing 1 mM IBMX) before a volume of 2.5 μL was added to the cells (the final, top concentration of compound in the dose-response is typically 10 or 100 μM). After a brief incubation, 2.5 μL of isoproterenol stock, prepared at a concentration 4 times its EC90 at the receptor of interest, was added to the wells. The EC90 for isoproterenol, a beta-adrenergic agonist, was determined in separate experiments using standard methods to measure agonist potencies.
Following a 1-hour incubation at room temperature, 5 μL of cAMP-D2 Reagent diluted in Lysis Buffer was added to each well followed by 5 μL of Cryptate Reagent. Plates were further incubated at room temperature for 1 hour prior to reading. Time resolved fluorescence measurements were collected on a suitable, HTRF-capable plate reader.
Counts from the plate reader were fit to the cAMP standard curve on the assay plate in order to determine cAMP concentrations in each well, and these values were used to construct dose-response curves to obtain IC50 values.

Chain of Beta-3 Adrenergic Receptor (P13945 whole entry, species assumed): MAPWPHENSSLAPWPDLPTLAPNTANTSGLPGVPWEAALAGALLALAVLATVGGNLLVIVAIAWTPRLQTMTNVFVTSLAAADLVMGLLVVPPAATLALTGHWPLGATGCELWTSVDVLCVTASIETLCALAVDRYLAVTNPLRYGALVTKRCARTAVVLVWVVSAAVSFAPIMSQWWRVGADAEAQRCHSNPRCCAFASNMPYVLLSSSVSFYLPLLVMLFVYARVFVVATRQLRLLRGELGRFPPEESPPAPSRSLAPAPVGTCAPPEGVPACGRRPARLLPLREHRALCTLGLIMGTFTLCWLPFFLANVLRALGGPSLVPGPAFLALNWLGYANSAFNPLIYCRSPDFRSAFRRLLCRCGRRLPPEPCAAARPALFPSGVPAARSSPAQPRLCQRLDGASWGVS

First: CCn1cc(-c2cccc(S(=O)(=O)N3CCC4(CC3)C[C@@H](NC[C@H](O)COc3cccc(S(=O)(=O)NC)c3)CO4)c2)cn1 [Compound 283, 3-((S)-3-((R)-8-(3-(1-ethyl-1H-pyrazol-4-yl)phenylsulfonyl)-1-oxa-8-azaspiro[4.5]decan-3-ylamino)-2-hydroxypropoxy)-N-methylbenzenesulfonamide]
Second: CNS(=O)(=O)c1cccc(OC[C@@H](O)CNC2COC3(CCN(S(=O)(=O)c4cccc(-c5cnn(CC(C)C)c5)c4)CC3)C2)c1 (stereo partly drawn) [Compound 81, 3-((2S)-2-hydroxy-3-(8-(3-(1-isobutyl-1H-pyrazol-4-yl)phenylsulfonyl)-1-oxa-8-azaspiro[4.5]decan-3-ylamino)propoxy)-N-methylbenzenesulfonamide]
The IC50 of the first is 5.1-fold higher: 84.6 nM for the first, 16.6 nM for the second.

Compared with `CNS(=O)(=O)c1cccc(OC[C@@H](O)CNC2COC3(CCN(S(=O)(=O)c4ccc(NCCO)nc4)CC3)C2)c1` (stereo partly drawn) [Compound 428, 3-((2S)-2-hydroxy-3-(8-(6-(2-hydroxyethylamino)pyridin-3-ylsulfonyl)-1-oxa-8-azaspiro[4.5]decan-3-ylamino)propoxy)-N-methylbenzenesulfonamide], `CNS(=O)(=O)c1cccc(OC[C@@H](O)CN[C@H]2COC3(CCN(S(=O)(=O)c4ccc(Br)c(C)c4)CC3)C2)c1` [Compound 271, 3-((S)-3-((R)-8-(4-bromo-3-methylphenylsulfonyl)-1-oxa-8-azaspiro[4.5]decan-3-ylamino)-2-hydroxypropoxy)-N-methylbenzenesulfonamide] is 8.2-fold lower in IC50: 61.5 nM for the first, 7.53 nM for the second.

`CNS(=O)(=O)c1cccc(OC[C@@H](O)CNC2COC3(CCN(S(=O)(=O)c4cc(-c5ccc(CN)cc5)ccc4OC(F)(F)F)CC3)C2)c1` (stereo partly drawn) [Compound 411, 3-((2S)-3-(8-(4′-(aminomethyl)-4-(trifluoromethoxy)biphenyl-3-ylsulfonyl)-1-oxa-8-azaspiro[4.5]decan-3-ylamino)-2-hydroxypropoxy)-N-methylbenzenesulfonamide] and `CCOc1ccc(-c2ccc(CN)cc2)cc1S(=O)(=O)N1CCC2(CC1)CC(NC[C@H](O)COc1cccc(S(=O)(=O)NC)c1)CO2` (stereo partly drawn) [Compound 404, 3-((2S)-3-(8-(4′-(aminomethyl)-4-ethoxybiphenyl-3-ylsulfonyl)-1-oxa-8-azaspiro[4.5]decan-3-ylamino)-2-hydroxypropoxy)-N-methylbenzenesulfonamide] are within 1.5-fold of each other in IC50: 9.84 nM for the first, 13 nM for the second.

Compared with `CNS(=O)(=O)c1cccc(OC[C@@H](O)CNC2COC3(CCN(S(=O)(=O)c4ccccc4OC)CC3)C2)c1` (stereo partly drawn) [Compound 398, 3-((2S)-2-hydroxy-3-(8-(2-methoxyphenylsulfonyl)-1-oxa-8-azaspiro[4.5]decan-3-ylamino)propoxy)-N-methylbenzenesulfonamide], `CNS(=O)(=O)c1cccc(OC[C@@H](O)CNC2COC3(CCN(S(=O)(=O)c4cc(Br)ccc4OC)CC3)C2)c1` (stereo partly drawn) [Compound 220, 3-((2S)-3-(8-(5-bromo-2-methoxyphenylsulfonyl)-1-oxa-8-azaspiro[4.5]decan-3-ylamino)-2-hydroxypropoxy)-N-methylbenzenesulfonamide] is 2.7-fold lower in IC50: 51.3 nM for the first, 19.1 nM for the second.

First: CNS(=O)(=O)c1cccc(OC[C@@H](O)CNC2COC3(CCN(S(=O)(=O)c4cccc(-c5ccc(S(N)(=O)=O)cc5)c4)CC3)C2)c1 (stereo partly drawn) [Compound 85, 3′-(3-((S)-2-hydroxy-3-(3-(N-methylsulfamoyl)phenoxy)propylamino)-1-oxa-8-azaspiro[4.5]decan-8-ylsulfonyl)biphenyl-4-sulfonamide]
Second: CNS(=O)(=O)c1cccc(OC[C@@H](O)CN[C@@H]2COC3(CCN(S(=O)(=O)c4cccc(-c5cnn(C)c5)c4)CC3)C2)c1 [Compound 216, 3-((S)-2-hydroxy-3-((S)-8-(3-(1-methyl-1H-pyrazol-4-yl)phenylsulfonyl)-1-oxa-8-azaspiro[4.5]decan-3-ylamino)propoxy)-N-methylbenzenesulfonamide]
The IC50 of the first is 5.9-fold lower: 9.73 nM for the first, 57.7 nM for the second.

`CNS(=O)(=O)c1cccc(OC[C@@H](O)CNC2COC3(CCN(S(=O)(=O)c4ccc5ncccc5c4)CC3)C2)c1` (stereo partly drawn) [Compound 323, 3-((2S)-2-hydroxy-3-(8-(quinolin-6-ylsulfonyl)-1-oxa-8-azaspiro[4.5]decan-3-ylamino)propoxy)-N-methylbenzenesulfonamide] and `CNS(=O)(=O)c1cccc(OC[C@@H](O)CN[C@H]2COC3(CCN(S(=O)(=O)c4cnc5nc(N)ccc5c4)CC3)C2)c1` [Compound 489, 3-((S)-3-((R)-8-(7-amino-1,8-naphthyridin-3-ylsulfonyl)-1-oxa-8-azaspiro[4.5]decan-3-ylamino)-2-hydroxypropoxy)-N-methylbenzenesulfonamide] are within 1.5-fold of each other in IC50: 24.8 nM for the first, 33.9 nM for the second.

Going from `C[C@@H](NS(=O)(=O)c1cccc(OC[C@@H](O)CNC2COC3(CCN(S(=O)(=O)c4ccc5ccccc5c4)CC3)C2)c1)C(C)(C)C` (stereo partly drawn) [Compound 100, N—((R)-3,3-dimethylbutan-2-yl)-3-((2S)-2-hydroxy-3-(8-(naphthalen-2-ylsulfonyl)-1-oxa-8-azaspiro[4.5]decan-3-ylamino)propoxy)benzenesulfonamide] to `CNS(=O)(=O)c1cccc(OC[C@@H](O)CNC2COC3(CCN(S(=O)(=O)c4ccc(C(F)(F)F)cc4)CC3)C2)c1` (stereo partly drawn) [Compound 45, 3-((2S)-2-hydroxy-3-(8-(4-(trifluoromethyl)phenylsulfonyl)-1-oxa-8-azaspiro[4.5]decan-3-ylamino)propoxy)-N-methylbenzenesulfonamide], the IC50 falls from 256 nM to 19.4 nM (13-fold).

First: CNS(=O)(=O)c1cccc(OC[C@@H](O)CNC2COC3(CCN(S(=O)(=O)c4ccc(F)cc4F)CC3)C2)c1 (stereo partly drawn) [Compound 134, 3-((2S)-3-(8-(2,4-difluorophenylsulfonyl)-1-oxa-8-azaspiro[4.5]decan-3-ylamino)-2-hydroxypropoxy)-N-methylbenzenesulfonamide]
Second: CNS(=O)(=O)c1cccc(OC[C@@H](O)CNC2COC3(CCN(S(=O)(=O)c4cc(Br)ccc4Cl)CC3)C2)c1 (stereo partly drawn) [Compound 259, 3-((2S)-3-(8-(5-bromo-2-chlorophenylsulfonyl)-1-oxa-8-azaspiro[4.5]decan-3-ylamino)-2-hydroxypropoxy)-N-methylbenzenesulfonamide]
The IC50 of the first is 1.6-fold higher: 37.9 nM for the first, 23.1 nM for the second. The second is the more potent here.

`NS(=O)(=O)c1cccc(OC[C@@H](O)CN[C@H]2COC3(CCN(S(=O)(=O)c4c[nH]c5c(F)cccc5c4=O)CC3)C2)c1` [Compound 554, 3-((S)-3-((R)-8-(8-fluoro-4-oxo-1,4-dihydroquinolin-3-ylsulfonyl)-1-oxa-8-azaspiro[4.5]decan-3-ylamino)-2-hydroxypropoxy)benzenesulfonamide] and `Cc1cccc2c(=O)c(S(=O)(=O)N3CCC4(CC3)C[C@@H](NC[C@H](O)COc3cccc(S(N)(=O)=O)c3)CO4)c[nH]c12` [Compound 553, 3-((S)-2-hydroxy-3-((R)-8-(8-methyl-4-oxo-1,4-dihydroquinolin-3-ylsulfonyl)-1-oxa-8-azaspiro[4.5]decan-3-ylamino)propoxy)benzenesulfonamide] are within 1.5-fold of each other in IC50: 34.6 nM for the first, 23.6 nM for the second.

Going from `CNS(=O)(=O)c1cccc(OC[C@@H](O)CNC2COC3(CCN(S(=O)(=O)c4cc(-c5ccc(CN)cc5)ccc4C)CC3)C2)c1` (stereo partly drawn) [Compound 365, 3-((2S)-3-(8-(4′-(aminomethyl)-4-methylbiphenyl-3-ylsulfonyl)-1-oxa-8-azaspiro[4.5]decan-3-ylamino)-2-hydroxypropoxy)-N-methylbenzenesulfonamide] to `CNS(=O)(=O)c1cccc(OC[C@@H](O)CNC2COC3(CCN(S(=O)(=O)c4cncc(-c5ccc(CN)nc5)c4)CC3)C2)c1` (stereo partly drawn) [Compound 388, 3-((2S)-3-(8-(6′-(aminomethyl)-3,3′-bipyridin-5-ylsulfonyl)-1-oxa-8-azaspiro[4.5]decan-3-ylamino)-2-hydroxypropoxy)-N-methylbenzenesulfonamide], the IC50 rises from 20.7 nM to 79.4 nM (3.8-fold).

`CNc1nc2c(cc1S(=O)(=O)N1CCC3(CC1)C[C@@H](NC[C@H](O)COc1cccc(S(=O)(=O)NC)c1)CO3)N(C)CCO2` [Compound 452, 3-((S)-2-hydroxy-3-((R)-8-(1-methyl-6-(methylamino)-2,3-dihydro-1H-pyrido[2,3-b][1,4]oxazin-7-ylsulfonyl)-1-oxa-8-azaspiro[4.5]decan-3-ylamino)propoxy)-N-methylbenzenesulfonamide] and `CNS(=O)(=O)c1cccc(OC[C@@H](O)CN[C@H]2COC3(CCN(S(=O)(=O)c4cnc5cn[nH]c5c4)CC3)C2)c1` [Compound 502, 3-((S)-3-((R)-8-(1H-pyrazolo[4,3-b]pyridin-6-ylsulfonyl)-1-oxa-8-azaspiro[4.5]decan-3-ylamino)-2-hydroxypropoxy)-N-methylbenzenesulfonamide] are within 1.5-fold of each other in IC50: 25.7 nM for the first, 18.9 nM for the second.

Compared with `NS(=O)(=O)c1cccc(OC[C@@H](O)CN[C@H]2COC3(CCN(S(=O)(=O)c4c[nH]c5ccc(F)cc5c4=O)CC3)C2)c1` [Compound 552, 3-((S)-3-((R)-8-(6-fluoro-4-oxo-1,4-dihydroquinolin-3-ylsulfonyl)-1-oxa-8-azaspiro[4.5]decan-3-ylamino)-2-hydroxypropoxy)benzenesulfonamide], `CNS(=O)(=O)c1cccc(OC[C@@H](O)CN[C@H]2COC3(CCN(S(=O)(=O)c4cnc5c(F)cccc5c4O)CC3)C2)c1` [Compound 540, 3-((S)-3-((R)-8-(8-fluoro-4-hydroxyquinolin-3-ylsulfonyl)-1-oxa-8-azaspiro[4.5]decan-3-ylamino)-2-hydroxypropoxy)-N-methylbenzenesulfonamide] is 1.8-fold higher in IC50: 17.8 nM for the first, 32.7 nM for the second. The first is the more potent here.

Source: patent US11987588B2, “Modulators of the beta-3 adrenergic receptor useful for the treatment or prevention of heart failure and disorders related thereto” (Arena Pharmaceuticals, Inc., priority 2017, dated 2024)
